Experimental findings from the OPERA property sets (Mansouri et al. 2018) are described below.

One may read the logP as the decadic logarithm of the partition coefficient of the neutral form, usually between octanol and water. Read a high logP as higher lipophilicity. `CC(C)CNC(=O)Nc1ccc(Cl)c(Cl)c1` had a logP of 4.48.
In the case of `C=CCNc1nc(Cl)nc(NCC=C)n1` it was 2.75.
As for `CCCCCC(C)Nc1nc(Cl)nc(NCC)n1` (centres undefined), the figure is 4.74.
As for `CCNc1nc(Cl)nc(NCC2CC2)n1`, the figure is 2.85.
`CN(C)C(=O)Nc1cccc(Cc2ccccc2)c1`: the logP was found to be 2.83.
For the compound `CNC(=O)Nc1cccc(OC)c1`, the logP was 1.26.
Compound `O=C(Cc1ccccc1)Nc1cccc(Cl)c1` registered a logP of 3.61.
The compound `CCNc1nc(Cl)nc(NC2CCCCC2)n1` yielded a logP of 3.63.
As for `CCCc1ccc(NC(=O)N(C)C)cc1`, the figure is 2.55; as for `CCCC(C)C(=O)Nc1ccc(C)c(Cl)c1` (centres undefined), 4.31.
In the case of `CCNc1nc(Cl)nc(NC2CCC2)n1` it was 2.77.
In the case of `CC1(NC(=O)Nc2ccccc2)CCCCC1` it was 3.6; in that of `CCCC(C)(C)C(=O)Nc1ccc(Cl)cc1`, 3.83.
Compound `C=CC(C)C(=O)Nc1ccc(Cl)cc1Cl` (centres undefined) returned a logP of 3.49.
